pKi: −log10 of the molar value.
Legend:
Cannabinoid receptor 2 = Cannabinoid receptor 2 (Homo sapiens, UniProt P34972); experiment: (§1) Radioligand Binding Assay: he affinity of the compounds of the invention for cannabinoid receptors was determined using recommended amounts of membrane preparations (PerkinElmer) of human embryonic kidney (HEK) cells expressing the human CNR1 or CNR2 receptors in conjunction with 1.5 or 2.6 nM [3H]-CP-55,940 (Perkin Elmer) as radioligand, respectively. Binding was performed in binding buffer (50 mM Tris, 5 mM MgCl2, 2.5 mM EDTA, and 0.5% (wt/vol) fatty acid free BSA, pH 7.4 for CB1 receptor and 50 mM Tris, 5 mM MgCl2, 2.5 mM EGTA, and 0.1% (wt/vol) fatty acid free BSA, pH 7.4 for CB2 receptor) in a total volume of 0.2 mL for 1 h at 30° C. shaking. The reaction was terminated by rapid filtration through microfiltration plates coated with 0.5% polyethylenimine (UniFilter GF/B filter plate; Packard). Bound radioactivity was analyzed for Ki using nonlinear regression analysis (Activity Base, ID Business Solution, Limited), with the Kd values for [3H]CP55,940 determined from saturation experiments.
Cannabinoid receptor 2, sequence (P34972 whole entry): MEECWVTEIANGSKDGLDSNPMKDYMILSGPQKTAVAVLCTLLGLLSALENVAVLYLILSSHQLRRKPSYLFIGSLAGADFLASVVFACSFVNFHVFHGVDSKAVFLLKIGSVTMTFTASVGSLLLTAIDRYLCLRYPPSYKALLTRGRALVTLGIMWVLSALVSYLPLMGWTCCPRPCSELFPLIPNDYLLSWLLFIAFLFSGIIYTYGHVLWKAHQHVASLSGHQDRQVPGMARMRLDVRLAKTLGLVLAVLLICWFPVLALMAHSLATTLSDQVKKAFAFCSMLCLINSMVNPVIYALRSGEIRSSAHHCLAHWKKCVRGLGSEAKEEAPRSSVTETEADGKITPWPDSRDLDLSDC

Cannabinoid receptor 1 = Cannabinoid receptor 1 (Homo sapiens, UniProt P21554); experiment: as §1
Cannabinoid receptor 1, sequence (P21554 whole entry): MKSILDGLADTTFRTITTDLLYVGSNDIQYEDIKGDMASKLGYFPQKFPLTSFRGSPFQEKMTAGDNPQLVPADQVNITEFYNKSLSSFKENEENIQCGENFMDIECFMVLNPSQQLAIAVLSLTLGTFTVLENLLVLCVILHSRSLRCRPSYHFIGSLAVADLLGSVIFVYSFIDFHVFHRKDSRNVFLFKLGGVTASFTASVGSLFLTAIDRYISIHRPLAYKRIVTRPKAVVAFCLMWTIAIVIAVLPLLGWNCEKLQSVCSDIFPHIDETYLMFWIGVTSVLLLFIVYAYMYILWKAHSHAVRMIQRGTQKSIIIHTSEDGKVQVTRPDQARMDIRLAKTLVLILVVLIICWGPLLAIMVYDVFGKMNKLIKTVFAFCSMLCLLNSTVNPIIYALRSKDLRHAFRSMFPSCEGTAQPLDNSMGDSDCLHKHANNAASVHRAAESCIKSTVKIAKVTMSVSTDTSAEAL

SMILES	pKi (Cannabinoid receptor 2)	pKi (Cannabinoid receptor 1)
CC(C)(C)c1nc(N2CCC(N=C=S)C2)c2nnn(Cc3ccccc3Cl)c2n1 (centres undefined)	5.87	5.25
Cc1nonc1Cn1nnc2c(N3CC[C@@H](S)C3)nc(C(C)(C)C)nc21 (single isomer, unassigned)	6.19	5.10

Reference: ChEMBL document CHEMBL5727382, “[1,2,3]triazolo[4,5-D]pyrimidine derivatives with affinity for the type-2 cannabinoid receptor” (2019)
